For test [1], the system named is phosphorylation of CAMKK2, AMPKα and AKT in PSMA-expressing and PSMA-negative (PC3-wt) cells. Briefly: Phosphorylation status by isoelectric focusing (NanoPro). As to conditions: for CAMKK2 phosphorylation: 5 μM, 48 h, FIG. 3b. The test is classed as cell-based, human. The procedure:
(§1) CAMKK2, AMPKα and AKT antibodies were purchased from Cell Signaling (Danvers, Mass.). Cells were grown to confluence and treated with 2-PMPA (5 μM, Tocris) for 48 h. The phosphorylation status of proteins of interest was determined with an isoelectric-focusing instrument (NanoPro1000, Protein Simple, Santa Clara, Calif.), where the samples were prepared and analyzed according to the supplier's guidelines. Determination of site-specific phosphorylation of key proteins was performed with a human phosphor-kinase array (ARY003, R&D Systems, Minneapolis, Minn.), according to the product's instructions.
Phosphorylation state of calcium dependent downstream effectors was analyzed. Since activation of metabotropic glutamate receptors and their associated G proteins can lead to phosphorylation of downstream effectors, phosphorylation levels of key proteins relative to PSMA expression was examined. The NanoPro system from Protein Simple was used, which allowed the determination of global phosphorylation status based on the isoelectric point changes of the target protein. The samples were prepared according to the supplier's guidelines, following lysis of the cells with the NanoPro lysis buffer. All antibodies used were purchased from Cell Signaling, detecting the total protein levels of a target protein. […] (FIG. 3b). […] It has been previously shown that either G protein-activated PI3K or calcium-activated mTORC2 phosphorylating PAK can cause Akt's phosphorylation. All graphs depict mean±s.e.m.

The subject of test [2] is LNCaP-wt cells. Briefly: Human phospho-kinase array (kinome profiling). The test is classed as cell-based. As to conditions: 48 h, 5 μM, FIG. 4a. The procedure:
as §1
Considering that PSMA inhibition affected the phosphorylation of some key kinases, a human kinome-profiling array from R&D Systems was utilized to obtain a wider view of other kinases being regulated by this protein. LNCaP-wt cells were grown in the presence of a PSMA inhibitor (48 h, 5 μM) and PC3-PSMA cells were grown under puromycin-induced selection. Control cells included LNCaP-wt and PC3-wt cells grown for 48 h in complete RPMI media. The cells were lysed and processed according to the array's protocol, and the array was performed according to its supplier's guideline. Imaging of the array's membranes was performed after film exposure in the presence of a chemiluniescent substrate and HRP-conjugated detecting antibodies, processed in a dark room.

Test [3] deals with nitric oxide synthase. Briefly: Nitric oxide synthase activity (total nitrate levels). The format is cell-based, human. As to conditions: 5 μM, 48 h. The procedure:
Gene expression array was performed after TRIzol-based RNA extraction on an U133A 2.0 gene array (Affymetrix, Santa Clara, Calif.). The output of the androgen receptor (AR) pathway was assessed by measuring the levels of prostate specific antigen (PSA). LNCaP cells that have a functional AR pathway were obtained from ATCC (Manassas, Va.) and grown to confluence. Then they were treated for 48 h with 2-PMPA (5 μM) for 48 h, followed by screening of the culture medium for secreted PSA with the DELFIA PSA assay (Perkin Elmer, Waltham, Mass.). The levels of nitric oxide attributed to nitric oxide synthase's activity and the concentration of total secreted prostaglandins were quantified with the corresponding kits purchased from Cayman Chemicals (Ann Arbor, Mich.). Alterations in energy production due to signaling changes were determined through quantification of the intracellular NAD+ and ATP lelels, using the NAD assay from Cayman Chemicals (Ann Arbor, Mich.) and the StayBrite ATP kit from Biovision (Milpitas, Calif.).
Furthermore, it was examined whether PSMA inhibition affects the activity of nitric oxide synthase and the levels of prostaglandins, since both Akt and Ca+2 regulate these processes. […]

In test [4] the test system is LNCaP and PC3-PSMA cells. Briefly: Total secreted prostaglandins. The test is classed as cell-based, human. Conditions: 5 μM, 48 h, FIG. 5c-d.
Text: LNCaP cells that have a functional AR pathway were obtained from ATCC (Manassas, Va.) and grown to confluence. […] The levels of nitric oxide attributed to nitric oxide synthase's activity and the concentration of total secreted prostaglandins were quantified with the corresponding kits purchased from Cayman Chemicals (Ann Arbor, Mich.).
Furthermore, it was examined whether PSMA inhibition affects the activity of nitric oxide synthase and the levels of prostaglandins, since both Akt and Ca+2 regulate these processes. The activity of nitric oxide synthase was assessed by quantifying the sample's total nitrate levels with a kit from Cayman Chemicals, whereas the levels of total prostaglandins secreted in the cell's medium were measured with the total prostaglandin kit from Cayman Chemicals. Inhibition of PSMA was performed with a PSMA inhibitor (5 μM) at 48 h at 37° C., 5% CO2.
For test [5], the system named is LNCaP xenografts. Briefly: In vivo chemotherapy, LNCaP xenografts. More on the design: species or system male athymic, nude mice. Conditions: 0.4 mM, 100 μL retro-orbital injection daily from implantation. The procedure: Male, athymic, nude mice (Harlan Laboratories, Indianapolis, Ind.) were implanted with LNCaP xenografts (3 million cells in 100 μL Matrigel) on each flank. Immediately post xengraft implantation, the mice were treated daily iv with 2-PMPA (0.4 mM, 100 μL retro-orbital injection). Tumor volume was assessed by measuring the tumor with microcalipers. Combination therapy was performed with male athymic, nude mice with LNCaP xenografts, which were treated daily post tumor detection. Chemotherapy was administered by iv (100 μL retro-orbital injection) with animals receiving either enzalutamide (0.15 mM), 2-PMPA (3 mM) or both compounds (0.15 mM enzalutamide and 3 mM 2-PMPA). Male athymic, nude mice with PC3-PSMA xenografts (3 million cells in 100 μL Matrigel) were treated with either vehicle (DMSO) or a combination of AZD8055 and XL184 (AZD8055 0.4 mM and XL184 8 μM 100 μL retro-orbital injection).
Tumor growth was examined using daily treatment of male athymic, nude mice with LNCaP xenografts on their flanks Each animal's flanks were injected with 3,000,000 cells in 100 μL matrigel, and the animals were immediately treated with 2-PMPA (0.4 mM, 100 μL retro-orbital injection). Tumor volume was assessed by measuring the tumor with microcalipers. […] In a different study, male athymic, nude mice with LNCaP xenografts were treated daily post tumor detection, with either enzalutamide (0.15 mM, 100 μL retro-orbital injection), 2-PMPA (3 mM, 100 μL retro-orbital injection) or both compounds (0.15 mM enzalutamide and 3 mM 2-PMPA, 100 μL retro-orbital injection). […] (FIG. 9c-d).

Turning to `O=C(O)CCC(CP(=O)(O)O)C(=O)O` (centres unmarked) [2-PMPA], the CAMKK2 phosphorylation result in test [1] (PSMA-expressing cells) was “decreased CAMKK2's phosphorylation”; in test [1] (cells lacking PSMA) it was “no effect”. Also, in test [1] (PSMA-positive cells, FIG. 3c), the “phosphorylation of AMPKα” value was “impaired”. Besides, the “phosphorylation of AKT” value in test [1] (PSMA-positive cells, FIG. 3d) is recorded as “impaired”. Further, the “phosphorylation of many proteins including TOR, p27, and Src” value in test [2] is “decreased”. Also, the nitrate concentration result in test [3] (PC3-wt cells that do not express PSMA) is recorded as “did not affect nitrate concentration”. In addition, the “nitric oxide synthase activity (nitrate levels)” value in test [3] (PSMA-expressing cells, FIG. 5c-d) was “decreased nitric oxide synthase activity”. Moreover, in test [4], the “total levels of secreted prostaglandins” value is given as “decreased”. Further, the “tumor size and growth” value in test [5] is recorded as “smaller tumors that grew slowly”. The tumor initiation entry in test [5] (FIG. 9a) was “did not affect tumor initiation”. Also, the animal survival result in test [5] (FIG. 9b) is recorded as “extended the animals survival”.

For the origin of these results see patent US20170252433A1, “PSMA-RELATED THERAPIES” (Memorial Sloan Kettering Cancer Center, priority 2014, published 2017).
